Results published in US6737383B1, “Herbicidal oxadiazolidines” (priority 1999, dated 2004).

What was measured:
corn = assay: Test B pre/postemergence corn; format: in vivo, Zea mays; details: for Corn plant response rating: scale of 0 to 10 where 0 is no effect and 10 is complete control
Outline: (§1)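 Herbicidal effect was estimated by eye on a ten-point control scale after plants spent twelve to sixteen days in a greenhouse following soil or foliar treatment. Foliar sprays targeted plants at one to four leaves; all doses were formulated in a non-phytotoxic solvent with surfactant.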

sugar beet = assay: Test B pre/postemergence sugar beet; format: in vivo, Beta vulgaris; details: for Sugarbeets plant response rating: scale of 0 to 10 where 0 is no effect and 10 is complete control
Outline: as §1

rape = assay: Test B pre/postemergence rape; format: in vivo, Brassica napus; details: for Rape plant response rating: scale of 0 to 10 where 0 is no effect and 10 is complete control
Outline: as §1

smallflower flatsedge = assay: Test B flood test smallflower flatsedge; format: in vivo, Cyperus difformis
Outline: (§2)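 Each value is a visual injury score relative to controls, with 10 meaning complete control and 0 no effect. Evaluation took place twelve to sixteen days after the 2-leaf-stage plants were treated and kept in the greenhouse.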

giant foxtail = assay: Test B pre/postemergence giant foxtail; format: in vivo, Setaria faberii; details: for Giant foxtail plant response rating: scale of 0 to 10 where 0 is no effect and 10 is complete control
Outline: as §1

surinam grass = assay: Test B pre/postemergence surinam grass; format: in vivo, Brachiaria decumbens
Outline: as §1

pigweed = assay: Test B pre/postemergence pigweed; format: in vivo, Amaranthus retroflexus; details: for Redroot pigweed plant response rating: scale of 0 to 10 where 0 is no effect and 10 is complete control
Outline: as §1

wild oat = assay: Test B pre/postemergence wild oat; format: in vivo, Avena fatua; details: for Wild oats plant response rating: scale of 0 to 10 where 0 is no effect and 10 is complete control
Outline: as §1

purple nutsedge = assay: Test B pre/postemergence purple nutsedge; format: in vivo, Cyperus rotundus; details: for Nutsedge plant response rating: scale of 0 to 10 where 0 is no effect and 10 is complete control
Outline: as §1

crabgrass = assay: Test B pre/postemergence crabgrass; format: in vivo, Digitaria sanguinalis; details: for Crabgrass plant response rating: scale of 0 to 10 where 0 is no effect and 10 is complete control
Outline: as §1

bedstraw = assay: Test B pre/postemergence bedstraw; format: in vivo, Galium aparine
Outline: as §1

bamyardgrass = assay: Test B flood test barnyardgrass; format: in vivo, Echinochloa crus-galli
Outline: as §2

velvetleaf = assay: Test B pre/postemergence velvetleaf; format: in vivo, Abutilon theophrasti; details: for Velvetleaf plant response rating: scale of 0 to 10 where 0 is no effect and 10 is complete control
Outline: as §1

morningglory = assay: Test B pre/postemergence morningglory; format: in vivo, Ipomoea hederacea; details: for Morningglory plant response rating: scale of 0 to 10 where 0 is no effect and 10 is complete control
Outline: as §1

wheat = assay: Test B pre/postemergence wheat; format: in vivo, Triticum aestivum; details: for Wheat plant response rating: scale of 0 to 10 where 0 is no effect and 10 is complete control
Outline: as §1

rice = assay: Test B flood test rice; format: in vivo, Oryza sativa
Outline: as §2

duck salad = assay: Test B flood test duck salad; format: in vivo, Heteranthera limosa
Outline: as §2

blackgrass = assay: Test B pre/postemergence blackgrass; format: in vivo, Alopecurus myosuroides
Outline: as §1

cocklebur = assay: Test B pre/postemergence cocklebur; format: in vivo, Xanthium strumarium; details: for Cocklebur plant response rating: scale of 0 to 10 where 0 is no effect and 10 is complete control
Outline: as §1

soybean = assay: Test B pre/postemergence soybean; format: in vivo, Glycine max; details: for Soybean plant response rating: scale of 0 to 10 where 0 is no effect and 10 is complete control
Outline: as §1

[1] = Postemergence, Rate 125 g/ha, scale 0 to 10, 0 is no effect, 10 is complete control
[2] = Preemergence, Rate 62 g/ha, scale 0 to 10 (0 no effect, 10 complete control)
[3] = Rate 500 g/ha, Postemergence, scale 0 to 10, 0 no effect, 10 complete control
[4] = Postemergence (flood test), Rate 125 g/ha, scale 0 to 10, 0 is no effect, 10 is complete control
[5] = Rate 500 g/ha, listed under Postemergence (flood test species), scale 0 to 10, 0 no effect, 10 complete control
[6] = Preemergence, Rate 250 g/ha, scale of 0 to 10 where 0 is no effect and 10 is complete control
[7] = Preemergence, Rate 500 g/ha, scale of 0 to 10 where 0 is no effect and 10 is complete control
[8] = Rate 62 g/ha, Postemergence, scale of 0 to 10 where 0 is no effect and 10 is complete control
[9] = Rate 250 g/ha, Postemergence, scale of 0 to 10 where 0 is no effect and 10 is complete control

In the case of `CC(C)C(C)n1c(=O)on(C(=O)N(c2ccc(F)cc2F)C(C)C)c1=O` (centres unmarked) [Compound 356], the “Plant response rating, Corn” value (corn; [1]) is reported as 0, the “Plant response rating, Corn” value (corn; [2]) is reported as 0 and the “Corn plant response rating (0 to 10 scale)” value (corn; Preemergence, Rate 125 g/ha) is reported as 0. For the same compound, the “Corn plant response rating” value (corn; Preemergence, Rate 250 g/ha) was 2, the “Corn plant response rating” value (corn; Preemergence, Rate 500 g/ha) was 6 and the “Corn plant response rating” value (corn; Rate 62 g/ha, Postemergence) was 0. The “Plant response rating, Corn” value (corn; [3]) was 3, the “Plant response rating, Sugarbeets” value (sugar beet; [1]) was 0 and the “Plant response rating, Sugarbeets” value (sugar beet; [2]) was 0. The “Sugarbeets plant response rating (0 to 10 scale)” value (sugar beet; Preemergence, Rate 125 g/ha) was 0, the “Sugarbeets plant response rating” value (sugar beet; Preemergence, Rate 250 g/ha) was 2 and the “Sugarbeets plant response rating” value (sugar beet; Preemergence, Rate 500 g/ha) was 5. For the same compound, the “Sugarbeets plant response rating” value (sugar beet; Rate 62 g/ha, Postemergence) was 0, the “Plant response rating, Sugarbeets” value (sugar beet; [3]) was 0 and the “Plant response rating, Rape” value (rape; [1]) was 0. The “Plant response rating, Rape” value (rape; [2]) was 0, the “Rape plant response rating (0 to 10 scale)” value (rape; Preemergence, Rate 125 g/ha) was 2 and the “Rape plant response rating” value (rape; Preemergence, Rate 250 g/ha) was 4. For the same compound, the “Rape plant response rating” value (rape; Preemergence, Rate 500 g/ha) was 5, the “Rape plant response rating” value (rape; Rate 62 g/ha, Postemergence) was 0 and the “Plant response rating, Rape” value (rape; [3]) was 0. For the same compound, the “Plant response rating, S. Flatsedge” value (smallflower flatsedge; [4]) was 4, the “Plant response rating, S. Flatsedge” value (smallflower flatsedge; [5]) was 7 and the “Plant response rating, Giant foxtail” value (giant foxtail; [1]) was 4. For the same compound, the “Plant response rating, Giant foxtail” value (giant foxtail; [2]) was 10, the “Giant foxtail plant response rating (0 to 10 scale)” value (giant foxtail; Preemergence, Rate 125 g/ha) was 10 and the “Giant foxtail plant response rating” value (giant foxtail; Preemergence, Rate 250 g/ha) was 10. The “Giant foxtail plant response rating” value (giant foxtail; Preemergence, Rate 500 g/ha) was 10, the “Giant foxtail plant response rating” value (giant foxtail; Rate 62 g/ha, Postemergence) was 2 and the “Plant response rating, Giant foxtail” value (giant foxtail; [3]) was 8. The “Plant response rating, B. signalgrass” value (surinam grass; [1]) was 0, the “Plant response rating, B. signalgrass” value (surinam grass; [2]) was 0 and the “B. signalgrass plant response rating (0 to 10 scale, 0 is no effect, 10 is complete control)” value (surinam grass; Preemergence, Rate 125 g/ha) was 3. The “B. signalgrass plant response rating” value (surinam grass; [6]) was 5, the “B. signalgrass plant response rating” value (surinam grass; [7]) was 5 and the “B. signalgrass plant response rating” value (surinam grass; [8]) was 0. The “Plant response rating, B. signalgrass” value (surinam grass; [9]) was 1, the “Plant response rating, B. signalgrass” value (surinam grass; [3]) was 1 and the “Plant response rating, Redroot pigweed” value (pigweed; [1]) was 0. For the same compound, the “Plant response rating, Redroot pigweed” value (pigweed; [2]) was 0, the “Redroot pigweed plant response rating (0 to 10 scale)” value (pigweed; Preemergence, Rate 125 g/ha) was 4 and the “Redroot pigweed plant response rating” value (pigweed; Preemergence, Rate 250 g/ha) was 8. The “Redroot pigweed plant response rating” value (pigweed; Preemergence, Rate 500 g/ha) was 10, the “Redroot pigweed plant response rating” value (pigweed; Rate 62 g/ha, Postemergence) was 0 and the “Plant response rating, Redroot pigweed” value (pigweed; [3]) was 0. For the same compound, the “Plant response rating, Wild oats” value (wild oat; [1]) was 3, the “Plant response rating, Wild oats” value (wild oat; [2]) was 5 and the “Wild oats plant response rating (0 to 10 scale)” value (wild oat; Preemergence, Rate 125 g/ha) was 7. The “Wild oats plant response rating” value (wild oat; Preemergence, Rate 250 g/ha) was 10, the “Wild oats plant response rating” value (wild oat; Rate 62 g/ha, Postemergence) was 2 and the “Plant response rating, Wild oats” value (wild oat; [3]) was 3. The “Plant response rating, Nutsedge” value (purple nutsedge; [1]) was 0, the “Plant response rating, Nutsedge” value (purple nutsedge; [2]) was 0 and the “Nutsedge plant response rating (0 to 10 scale)” value (purple nutsedge; Preemergence, Rate 125 g/ha) was 0. For the same compound, the “Nutsedge plant response rating” value (purple nutsedge; Preemergence, Rate 250 g/ha) was 0, the “Nutsedge plant response rating” value (purple nutsedge; Preemergence, Rate 500 g/ha) was 0 and the “Nutsedge plant response rating” value (purple nutsedge; Rate 62 g/ha, Postemergence) was 0. For the same compound, the “Plant response rating, Nutsedge” value (purple nutsedge; [3]) was 0, the “Plant response rating, Crabgrass” value (crabgrass; [1]) was 0 and the “Plant response rating, Crabgrass” value (crabgrass; [2]) was 7. For the same compound, the “Crabgrass plant response rating (0 to 10 scale)” value (crabgrass; Preemergence, Rate 125 g/ha) was 8, the “Crabgrass plant response rating” value (crabgrass; Preemergence, Rate 250 g/ha) was 9 and the “Crabgrass plant response rating” value (crabgrass; Preemergence, Rate 500 g/ha) was 10. For the same compound, the “Crabgrass plant response rating” value (crabgrass; Rate 62 g/ha, Postemergence) was 0, the “Plant response rating, Crabgrass” value (crabgrass; [3]) was 3 and the “Plant response rating, Bedstraw” value (bedstraw; [1]) was 0. The “Plant response rating, Bedstraw” value (bedstraw; [2]) was 0, the “Bedstraw plant response rating (0 to 10 scale)” value (bedstraw; Preemergence, Rate 125 g/ha) was 0 and the “Bedstraw plant response rating” value (bedstraw; [7]) was 9. For the same compound, the “Bedstraw plant response rating” value (bedstraw; [8]) was 0, the “Plant response rating, Bedstraw” value (bedstraw; [9]) was 3 and the “Plant response rating, Bedstraw” value (bedstraw; [3]) was 3. The “Plant response rating, Barnyardgrass” value (bamyardgrass; [4]) was 0, the “Plant response rating, Barnyardgrass” value (bamyardgrass; Rate 250 g/ha, Postemergence (flood test species), scale of 0 to 10 where 0 is no effect and 10 is complete control) was 7 and the “Plant response rating, Barnyardgrass” value (bamyardgrass; [5]) was 7. The “Plant response rating, Velvetleaf” value (velvetleaf; [1]) was 0, the “Plant response rating, Velvetleaf” value (velvetleaf; [2]) was 1 and the “Velvetleaf plant response rating (0 to 10 scale)” value (velvetleaf; Preemergence, Rate 125 g/ha) was 2. For the same compound, the “Velvetleaf plant response rating” value (velvetleaf; Preemergence, Rate 250 g/ha) was 3, the “Velvetleaf plant response rating” value (velvetleaf; Preemergence, Rate 500 g/ha) was 5 and the “Velvetleaf plant response rating” value (velvetleaf; Rate 62 g/ha, Postemergence) was 0. The “Plant response rating, Velvetleaf” value (velvetleaf; [3]) was 0, the “Plant response rating, Morningglory” value (morningglory; [1]) was 6 and the “Plant response rating, Morningglory” value (morningglory; [2]) was 0. The “Morningglory plant response rating (0 to 10 scale)” value (morningglory; Preemergence, Rate 125 g/ha) was 0, the “Morningglory plant response rating” value (morningglory; Preemergence, Rate 250 g/ha) was 0 and the “Morningglory plant response rating” value (morningglory; Preemergence, Rate 500 g/ha) was 0. For the same compound, the “Morningglory plant response rating” value (morningglory; Rate 62 g/ha, Postemergence) was 4, the “Plant response rating, Morningglory” value (morningglory; [3]) was 10 and the “Plant response rating, Wheat” value (wheat; [1]) was 3. For the same compound, the “Plant response rating, Wheat” value (wheat; [2]) was 0, the “Wheat plant response rating (0 to 10 scale)” value (wheat; Preemergence, Rate 125 g/ha) was 0 and the “Wheat plant response rating” value (wheat; Preemergence, Rate 250 g/ha) was 0. The “Wheat plant response rating” value (wheat; Preemergence, Rate 500 g/ha) was 6, the “Wheat plant response rating” value (wheat; Rate 62 g/ha, Postemergence) was 2 and the “Plant response rating, Wheat” value (wheat; [3]) was 4. For the same compound, the “Plant response rating, Rice” value (rice; [4]) was 0, the “Rice plant response rating” value (rice; Rate 62 g/ha, Postemergence (flood test species), scale of 0 to 10 where 0 is no effect and 10 is complete control) was 0 and the “Plant response rating, Rice” value (rice; [5]) was 0. For the same compound, the “Plant response rating, Ducksalad” value (duck salad; [4]) was 0, the “Plant response rating, Ducksalad” value (duck salad; [5]) was 2 and the “Plant response rating, Blackgrass” value (blackgrass; [1]) was 6. The “Plant response rating, Blackgrass” value (blackgrass; [2]) was 5, the “Blackgrass plant response rating (0 to 10 scale)” value (blackgrass; Preemergence, Rate 125 g/ha) was 6 and the “Blackgrass plant response rating” value (blackgrass; [6]) was 9. For the same compound, the “Blackgrass plant response rating” value (blackgrass; [7]) was 9, the “Blackgrass plant response rating” value (blackgrass; [8]) was 3 and the “Plant response rating, Blackgrass” value (blackgrass; [9]) was 6. The “Plant response rating, Blackgrass” value (blackgrass; [3]) was 7, the “Plant response rating, Cocklebur” value (cocklebur; [1]) was 0 and the “Cocklebur plant response rating (0 to 10 scale)” value (cocklebur; Preemergence, Rate 125 g/ha) was 0. The “Cocklebur plant response rating” value (cocklebur; Preemergence, Rate 250 g/ha) was 0, the “Cocklebur plant response rating” value (cocklebur; Preemergence, Rate 500 g/ha) was 0 and the “Cocklebur plant response rating” value (cocklebur; Rate 62 g/ha, Postemergence) was 0. The “Plant response rating, Cocklebur” value (cocklebur; [3]) was 0, the “Plant response rating, Soybean” value (soybean; [1]) was 3 and the “Plant response rating, Soybean” value (soybean; [2]) was 0. For the same compound, the “Soybean plant response rating (0 to 10 scale)” value (soybean; Preemergence, Rate 125 g/ha) was 0, the “Soybean plant response rating” value (soybean; Preemergence, Rate 250 g/ha) was 0 and the “Soybean plant response rating” value (soybean; Preemergence, Rate 500 g/ha) was 0. The “Soybean plant response rating” value (soybean; Rate 62 g/ha, Postemergence) was 2 and the “Plant response rating, Soybean” value (soybean; [3]) was 5.
